Values after ≈ are worked out from the molar mass of the structure shown. Read-outs that look alike come from different tables or passages of the source. Marks after values point to notes of the source that are not given here.
Columns and labels:
[1] = system: HIV-1(IIIB); assay: HIV-1(IIIB)-induced cytopathicity in MT-4 cell cultures; assay type: cell-based; details: Table 2; for EC50: Human immunodeficiency virus 1, IIIB, MT4
Text: Viruses. The origins of MSV, HIV type 1 (HIV-1) (strain IIIB and Ba-L), HIV-2 (strain ROD) and FIV (strain Petaluma) have been described previously (Balzarini et al., AIDS 5: 21-28, 1991; De Clercq et al., Proc. Soc. Exp. Biol. Med. 137:590-594, 1971; Egberink et al., Proc. Natl. Acad. Sci. 87:3087-3091, 1990; Hartmann et al., Antiviral Chem. Chemother. 5:13-19, 1994; Popovic et al., Science 224:497-500, 1984). HIV-1(IIIB) and HIV-2(ROD) stocks were obtained from supernatants of virus-infected MT-4 cell cultures. HIV-1BaL was expanded in human primary M/M, whose supernatants were collected, filtered and stored at −80° C. before use. Characteristics of viral stocks used for this study were 2.1×10^8 HIV-RNA genomes/ml (corresponding to 35 ng of p24 antigen) and 5,000 tissue culture infectious doses 50% per ml (TCID50/ml) as assessed by virus titration in other primary M/M cultures. The isolation and characterization of the clinical HIV-1 isolates L1S, L6S and L6S/PMEA has been reported (Thormar et al., Proc. Natl. Acad. Sci. USA 93:3283-3287, 1995; Van Laethem et al., AIDS 15:553-561, 2001). […] HIV-1/L6S/PMEA is the clinical isolate HIV-1/L6S that has been isolated after culturing the virus for 11 passages in the presence of increasing concentrations of PMEA (adefovir).
(§1) In vitro antiviral assays. The activity against HIV-1- and HIV-2-induced cytopathicity was examined in MT-4 cell cultures at day 5 post infection and based on the determination of cell viability by trypan blue dye staining or in CEM cell cultures at day 4 to 5 post infection and based on the microscopical examination of virus-induced giant cell formation. HIV-1 and HIV-2 were added at 100 CCID50 to the cell cultures.

[2] = system: HIV-1(Ba-L); assay: HIV-1(BaL) p24 antigen production in human primary macrophages (M/M); assay type: cell-based; details: Table 2; for EC50: Human immunodeficiency virus 1, BAL, Primary macrophage
Text: Viruses. The origins of MSV, HIV type 1 (HIV-1) (strain IIIB and Ba-L), HIV-2 (strain ROD) and FIV (strain Petaluma) have been described previously (Balzarini et al., AIDS 5: 21-28, 1991; De Clercq et al., Proc. Soc. Exp. Biol. Med. 137:590-594, 1971; Egberink et al., Proc. Natl. Acad. Sci. 87:3087-3091, 1990; Hartmann et al., Antiviral Chem. Chemother. 5:13-19, 1994; Popovic et al., Science 224:497-500, 1984). HIV-1(IIIB) and HIV-2(ROD) stocks were obtained from supernatants of virus-infected MT-4 cell cultures. HIV-1BaL was expanded in human primary M/M, whose supernatants were collected, filtered and stored at −80° C. before use. Characteristics of viral stocks used for this study were 2.1×10^8 HIV-RNA genomes/ml (corresponding to 35 ng of p24 antigen) and 5,000 tissue culture infectious doses 50% per ml (TCID50/ml) as assessed by virus titration in other primary M/M cultures. The isolation and characterization of the clinical HIV-1 isolates L1S, L6S and L6S/PMEA has been reported (Thormar et al., Proc. Natl. Acad. Sci. USA 93:3283-3287, 1995; Van Laethem et al., AIDS 15:553-561, 2001). The HIV-1/L1S clinical isolate was derived from a patient not treated with NRTIs (nucleoside reverse transcriptase inhibitors) or ANPs and cultured without the selective pressure of any drugs. Therefore, it contained no obvious mutations that are characteristic for NRTI- or ANP-treated patients. HIV-1/L6S is a clinical isolate from a drug-treated individual cultured without the selective pressure of any drugs. As is characteristic for NRTI-treated patients, it contained S68G, K70T, V75I, F77L, F116Y and Q151M mutations in its RT. HIV-1/L6S/PMEA is the clinical isolate HIV-1/L6S that has been isolated after culturing the virus for 11 passages in the presence of increasing concentrations of PMEA (adefovir). It gained, in addition to the mutations mentioned for HIV-1/L6S, also the PMEA-characteristic K65R mutation in its reverse transcriptase (RT).
Human primary macrophages (M/M) were prepared and purified as follows. Peripheral blood mononuclear cells (PBMC), obtained from healthy HIV-1-negative donors were separated over a Ficoll gradient and seeded in 48-well plates at 1.8×10^6 cells/well in 1 ml of RPMI 1640 containing 20% heat-inactivated, endotoxin- and mycoplasma-free fetal bovine serum (Hyclone Laboratories, Inc., Logan, Utah), 4 mM L-glutamine (Life Technologies), 50 U/ml penicillin and 50 μg/ml streptomycin (Life Technologies) (hereinafter referred to as complete medium). Five days after plating and culturing the PBMC at 37° C. in a humidified atmosphere enriched with 5% CO2-adherent cells were carefully removed with repeated washings with warmed RPMI-1640, leaving a monolayer of adherent cells which were finally incubated in complete medium. […]

[3] = system: MSV; assay type: in vivo; details: for Number of Mice not Developing a Tumor (percent): intraperitoneal, 5 daily doses, newborn NMRI mice
[4] = system: HIV; assay: Anti-HIV activity across HIV-1 and HIV-2 in CEM and MT-4 cell cultures; assay type: cell-based; details: HIV-1 and HIV-2 in CEM and MT-4 cells; for EC50: Human immunodeficiency virus 1, MT4, read-out: EC50 values for HIV (range over virus/cell systems)
Procedure: as §1

[5] = Inhibition of CEM cell growth (cytostatic activity); assay type: cell-based; details: human
Procedure: Cytostatic and antimetabolic effect of acyclic nucleoside phosphonates in vitro. The assays to examine the inhibition of CEM cell growth by the test compounds have been described previously (Balzarini et al., AIDS 5:21-28, 1991). The 50% cytostatic concentration (CC50) was defined as the concentration of compound that reduced the number of living cells by 50% . To measure MT-4 cell toxicity of the test compounds, 5×10^4 MT-4 cells were incubated in the wells of 96-well microplates in the presence or absence of different concentrations of the test compounds for 5 days at 37° C. The CC50 was then calculated from the number of living cells counted under a microscope by the trypan blue exclusion method.

[6] = 20 mg/kg, premature death not taken into account
[7] = 50 mg/kg, premature death not taken into account
[8] = CEM cells, 50% cytostatic concentration, CEM cell proliferation, Table 1, read-out: CC50 (CEM)
[9] = CEM cells, inhibition of cell proliferation, Table 2, read-out: CC50 CEM
[10] = CEM cells, read-out: CC50 for CEM cells

SMILES	EC50 HIV-1 (IIIB) (MT-4) [1]	EC50 HIV-1 (BaL) (M/M) [2]	Number of Long-Term Survivors (%) (>30 days) ([3]; 2 mg/kg)	Number of Mice not Developing a Tumor (percent) ([3]; 2 mg/kg)	Number of Long-Term Survivors (%) (>30 days) ([3]; 8 mg/kg)	Number of Mice not Developing a Tumor (percent) ([3]; 8 mg/kg)	Number of Mice not Developing a Tumor (percent) ([3]; 20 mg/kg)	Number of Long-Term Survivors (%) (>30 days) [3, 6]	Number of Mice not Developing a Tumor (percent) ([3]; 50 mg/kg)	Number of Long-Term Survivors (%) (>30 days) [3, 7]	EC50 [1]	EC50 [2]	CC50 [5, 8]	CC50 [5, 9]	CC50 [5, 10]	EC50 [4]	also measured
C[C@H](Cn1cnc2c(N)ncnc21)OCP(=O)(O)O [(R)-PMPA, (R)-9-[(2-phosphonomethoxy)-propyl]adenine, reference compound]	0.46 ± 0.006 µg/mL (≈ 1.6 µM)	0.003 ± 0.001 µg/mL (≈ 0.0104 µM)	31%	0%	83%	65%	92%	100%	100%	100%							EC50 values for HIV (range over virus/cell systems) [4]: 0.36 to 0.52 µg/mL
Nc1cc(OCCOCP(=O)(O)O)nc(N)n1 [Compound 1, 2,4-diamino-6-[2-(phosphonomethoxy)ethoxy]pyrimidine]			15%	5%	89%	44%	80%	100%	84%	100^b %	0.34 ± 0.03 µg/mL (≈ 1.29 µM)	0.002 ± 0.001 µg/mL (≈ 0.00757 µM)	11 µg/mL (≈ 41.6 µM)	11 ± 2 µg/mL (≈ 41.6 µM)	11 µg/mL (≈ 41.6 µM)	0.29 to 0.8 µg/mL (≈ 1.1 to 3.03 µM)	Mice protected from tumor formation ([3]; 50 and 20 mg/kg): At least 80%
Nc1cc(SCCOCP(=O)(O)O)nc(N)n1 [Compound 2, 2,4-diamino-6-{[2-(phosphonomethoxy)ethyl]-sulfanyl}pyrimidine]			0%	0%	20%	0%	0%	20%	0%	20%	2.5 ± 0.3 µg/mL (≈ 8.92 µM)		64 µg/mL (≈ 228 µM)	64 ± 9.8 µg/mL (≈ 228 µM)	~60 µg/mL (≈ 214 µM)		Prevention of tumor formation, in words ([3]; all doses tested): unable to prevent tumor formation; Long-term survivors ([3]; dose of 8-50 mg/kg): 20%; Delay of MSV-induced tumor formation, in words ([3]; mouse, in vivo): only showed a pronounced delay in tumor formation at a dose of 50 mg/kg
C[C@H](COc1cc(N)nc(N)n1)OCP(=O)(O)O [Compound 11, 2,4-diamino-6-(R)-[2-(phosphonomethoxy)propoxy]pyrimidine]	3.0 ± 0.4 µg/mL (≈ 10.8 µM)	0.005 ± 0.0 µg/mL (≈ 0.018 µM)	5%	0%	40%	15%	20%	40^c %									
Nc1ncnc2c1ncn2CCOCP(=O)(O)O [PMEA, 9-[(2-phosphono-methoxy)ethyl]adenine, reference compound]					77%	44%	89%	94%			1.3 ± 1.1 µg/mL (≈ 4.76 µM)	0.006 µg/mL (≈ 0.022 µM)				0.96 to 2 µg/mL (≈ 3.51 to 7.32 µM)	CC50 ([5]; 50% cytostatic concentration, CEM cell proliferation, Table 1, read-out: CC50 (CEM)): 16 µg/mL (≈ 58.6 µM); Number of Long-Term Survivors (%) (>30 days) ([3]; 4 mg/kg): 35%; Number of Mice not Developing a Tumor (percent) ([3]; 4 mg/kg): 5%; Number of Mice not Developing a Tumor (percent) ([3]; 100 mg/kg): 100^d percent
